Each structure is given as a SMILES string.

The values that follow come from US10392404B2, “Compounds and compositions as kinase inhibitors” (NOVARTIS AG, priority 2014, dated 2019).

One test concerns the target T1, C-RAF (Homo sapiens, UniProt P04049, Y340E/Y341E).
T1 construct: His tag (implied by nickel chromatography) (cleaved yes); StrepII tag (cleaved yes); made in house; host or cells: Sf9 insect cells (baculovirus), CRAF and h14-3-3 zeta co-expressed; MEK1 substrate from E. coli
The test can be described thus: In vitro Raf activity determination (Alpha Screen, biotinylated kinase-dead MEK1 substrate), C-Raf. The class given is biochemical. The following applies: c-Raf approximately 4 nM; ATP 1 μM; pre-incubation 60 minutes; reaction 1 hour at room temperature. The essentials: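 Full-length C-Raf carrying Y340E/Y341E, co-expressed with 14-3-3ζ in Sf9 cells, at approximately 4 nM, with approximately 10 nM biotinylated kinase-dead MEK1 (K97R) and 1 μM ATP, pH 7.5. Compound preincubated 60 min, reaction 1 hour at room temperature. Phospho-MEK read by AlphaScreen; IC50 by non-linear regression.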

The target in a further test is T2, b-Raf (V600E) (Homo sapiens, UniProt P15056, V600E).
T2 construct: made in house
T2 sequence (P15056 whole entry V600E): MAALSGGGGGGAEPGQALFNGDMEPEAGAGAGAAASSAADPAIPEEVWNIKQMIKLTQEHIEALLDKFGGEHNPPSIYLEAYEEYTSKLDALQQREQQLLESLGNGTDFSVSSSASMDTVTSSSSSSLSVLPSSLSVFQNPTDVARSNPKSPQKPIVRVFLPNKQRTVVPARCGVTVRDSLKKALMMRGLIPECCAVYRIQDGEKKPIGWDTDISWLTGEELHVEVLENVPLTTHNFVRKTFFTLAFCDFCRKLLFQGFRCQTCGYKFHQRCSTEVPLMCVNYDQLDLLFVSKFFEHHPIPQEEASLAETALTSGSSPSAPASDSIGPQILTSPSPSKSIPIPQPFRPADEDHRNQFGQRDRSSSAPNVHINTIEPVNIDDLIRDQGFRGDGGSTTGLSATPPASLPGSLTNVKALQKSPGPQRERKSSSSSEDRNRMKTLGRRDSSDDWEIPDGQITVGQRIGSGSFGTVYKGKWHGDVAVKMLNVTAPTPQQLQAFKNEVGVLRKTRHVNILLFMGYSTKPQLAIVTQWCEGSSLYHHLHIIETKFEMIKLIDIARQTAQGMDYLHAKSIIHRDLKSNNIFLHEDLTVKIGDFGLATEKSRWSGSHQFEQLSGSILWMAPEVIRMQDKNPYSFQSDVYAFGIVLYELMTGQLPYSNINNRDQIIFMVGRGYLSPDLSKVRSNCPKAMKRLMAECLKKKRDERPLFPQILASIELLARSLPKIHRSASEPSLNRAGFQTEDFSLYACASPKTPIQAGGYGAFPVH
The test can be described thus: In vitro Raf activity determination (Alpha Screen, biotinylated kinase-dead MEK1 substrate), B-Raf. The class given is biochemical. The following applies: b-Raf (V600E) approximately 4 pM; ATP 10 μM; pre-incubation 60 minutes; reaction 3 hours at room temperature. The essentials: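 Activated b-Raf(V600E) (~4 pM) pre-incubated 60 min with compound and biotinylated kinase-dead (K97R) MEK1 (~10 nM), then reacted 3 h at room temperature with 10 μM ATP in 50 mM Tris pH 7.5, 15 mM MgCl2, 0.01% BSA, 1 mM DTT. Phospho-MEK detected by AlphaScreen; IC50 by non-linear regression.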

T1 sequence (P04049 whole entry Y340E/Y341E): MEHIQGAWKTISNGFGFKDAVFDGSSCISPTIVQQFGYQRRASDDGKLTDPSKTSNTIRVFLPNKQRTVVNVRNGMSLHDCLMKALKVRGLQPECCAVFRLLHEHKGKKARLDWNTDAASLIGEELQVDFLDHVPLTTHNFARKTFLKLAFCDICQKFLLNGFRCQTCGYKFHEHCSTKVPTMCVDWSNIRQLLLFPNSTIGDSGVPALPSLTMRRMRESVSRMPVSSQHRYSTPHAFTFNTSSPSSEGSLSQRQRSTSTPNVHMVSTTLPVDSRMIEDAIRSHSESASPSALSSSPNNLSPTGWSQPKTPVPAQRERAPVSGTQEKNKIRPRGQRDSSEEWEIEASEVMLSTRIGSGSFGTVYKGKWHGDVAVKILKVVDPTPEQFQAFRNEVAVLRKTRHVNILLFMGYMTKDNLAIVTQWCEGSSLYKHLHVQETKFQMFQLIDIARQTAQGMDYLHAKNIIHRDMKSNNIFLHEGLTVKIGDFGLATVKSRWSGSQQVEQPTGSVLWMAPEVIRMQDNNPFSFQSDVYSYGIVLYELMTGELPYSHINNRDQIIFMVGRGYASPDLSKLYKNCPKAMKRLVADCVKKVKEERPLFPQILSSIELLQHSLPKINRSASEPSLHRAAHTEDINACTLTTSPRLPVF
T1 sequence (P63104 whole entry partner): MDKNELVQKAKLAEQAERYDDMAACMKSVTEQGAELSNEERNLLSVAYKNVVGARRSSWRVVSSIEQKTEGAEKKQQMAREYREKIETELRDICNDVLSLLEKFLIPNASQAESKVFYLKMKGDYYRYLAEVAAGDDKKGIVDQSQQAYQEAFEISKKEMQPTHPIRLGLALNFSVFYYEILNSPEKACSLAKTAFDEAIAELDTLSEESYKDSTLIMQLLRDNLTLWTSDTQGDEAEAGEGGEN

For the molecule `Cc1ccc(NC(=O)c2ccnc(C(C)(C)F)c2)cc1-c1cnc(N2CCNCC2)c(C#N)c1` [Example 164, N-(3-(5-cyano-6-(piperazin-1-yl)pyridin-3-yl)-4-methylphenyl)-2-(2-fluoropropan-2-yl)isonicotinamide], the IC50 against C-RAF came to 0.222 nM; against b-Raf (V600E), 0.683 nM.
Turning to `Cc1ncc(NC(=O)c2ccnc(C(C)(C)C#N)c2)cc1-c1cnc(-c2cn(C)nc2C)c(C#N)c1` [Example 113, N-(5′-cyano-6′-(1,3-dimethyl-1H-pyrazol-4-yl)-2-methyl-[3,3′-bipyridin]-5-yl)-2-(2-cyanopropan-2-yl)isonicotinamide], the 50% inhibitory concentration (IC50) against C-RAF is 1.79 nM; on b-Raf (V600E), 6.26 nM.
As to `CCn1cc(C(=O)Nc2ccc(C)c(-c3cnc(N(C)C)c(C#N)c3)c2)c(C)n1` [Example 251, N-(3-(5-cyano-6-(dimethylamino)pyridin-3-yl)-4-methylphenyl)-1-ethyl-3-methyl-1H-pyrazole-4-carboxamide], the IC50 against C-RAF stood at 7.28 nM; against b-Raf (V600E), 59.7 nM.
For the molecule `Cc1ncc(NC(=O)c2cc(C(C)(C)N)cc(C(F)(F)F)c2)cc1-c1cnc(N2CC(C)(O)C2)c(C#N)c1` [Example 247, 3-(2-aminopropan-2-yl)-N-(5′-cyano-6′-(3-hydroxy-3-methylazetidin-1-yl)-2-methyl-[3,3′-bipyridin]-5-yl)-5-(trifluoromethyl) benzamide], the 50% inhibitory concentration (IC50) on C-RAF was 4.96 nM; on b-Raf (V600E) it was 30.7 nM.
The corresponding values for `Cc1ncc(NC(=O)c2ccnc(C(C)(C)C#N)c2)cc1-c1cnc(N(C)C)c(C#N)c1` [Example 26, N-(5′-cyano-6′-(dimethylamino)-2-methyl-[3,3′-bipyridin]-5-yl)-2-(2-cyanopropan-2-yl)isonicotinamide] are 1.78 nM and 15 nM.
Take `Cc1ccc(NC(=O)c2ccnc(C(C)(C)C#N)c2)cc1-c1cnc(N2CCNCC2)c(C#N)c1` [Example 151, N-(3-(5-cyano-6-(piperazin-1-yl)pyridin-3-yl)-4-methylphenyl)-2-(2-cyanopropan-2-yl)isonicotinamide]: the IC50 amounted to 0.353 nM at C-RAF and 1.41 nM at b-Raf (V600E).
Consider `Cc1ccc(NC(=O)c2ccnc(C(F)(F)F)c2)cc1-c1cnc(S(C)(=O)=O)c(C#N)c1` [Example 46, N-(3-(5-cyano-6-(methylsulfonyl)pyridin-3-yl)-4-methylphenyl)-2-(trifluoromethyl) isonicotinamide], for which the IC50 came to 2.11 nM at C-RAF and 10.5 nM against b-Raf (V600E).
With `Cc1ncc(NC(=O)c2ccnc(C(C)(C)C#N)c2)cc1-c1cnc(OCCO)c(C#N)c1` [Example 98, N-(5′-cyano-6′-(2-hydroxyethoxy)-2-methyl-[3,3′-bipyridin]-5-yl)-2-(2-cyanopropan-2-yl)isonicotinamide], the IC50 against C-RAF is 9.21 nM; against b-Raf (V600E) it was 74.3 nM.
`Cc1ncc(NC(=O)c2ccnc(C(F)F)c2)cc1-c1cnc(C2CCOCC2)c(C#N)c1` [Example 129, N-(5′-cyano-2-methyl-6′-(tetrahydro-2H-pyran-4-yl)-[3,3′-bipyridin]-5-yl)-2-(difluoromethyl) isonicotinamide]: the values for the IC50 against C-RAF and at b-Raf (V600E) were 2.55 nM and 23.8 nM, respectively.
The corresponding values for `Cc1ccc(C(=O)Nc2cccc(C(F)(F)F)c2)cc1-c1cnc(N)c(C#N)c1` [Example 3, 3-(6-amino-5-cyanopyridin-3-yl)-4-methyl-N-(3-(trifluoromethyl)phenyl)benzamide] are 0.125 nM and 0.991 nM.
As for `Cc1ccc(NC(=O)c2cnnc(C(C)(C)C#N)c2)cc1-c1cnc(N2CCOCC2)c(C#N)c1` [Example 206, N-(3-(5-cyano-6-morpholinopyridin-3-yl)-4-methylphenyl) 6-(2-cyanopropan-2 yl)pyridazine-4-carboxamide], the results for the half-maximal inhibitory concentration (IC50) at C-RAF and at b-Raf (V600E) were 0.199 nM and 1.23 nM, respectively.
`Cc1ncc(NC(=O)c2ccnc(C3(C#N)CC3)c2)cc1-c1cnc(N2CC(C)(O)C2)c(C#N)c1` [Example 189, N-(5′-cyano-6′-(3-hydroxy-3-methylazetidin-1-yl)-2-methyl-[3,3′-bipyridin]-5-yl)-2-(1-cyanocyclopropyl) isonicotinamide]: the IC50 against C-RAF stood at 0.39 nM; against b-Raf (V600E), 3.41 nM.
The corresponding values for `Cc1ncc(NC(=O)c2ccnc(C(C)(C)O)c2)cc1-c1cnc(N2CCOCC2)c(C#N)c1` [Example 166, N-(5′-cyano-2-methyl-6′-morpholino-[3,3′-bipyridin]-5-yl)-2-(2-hydroxypropan-2-yl)isonicotinamide] are 1.59 nM and 6.91 nM.
The corresponding values for `Cc1ncc(NC(=O)c2ccnc(C3CC3)c2)cc1-c1cnc(N2CC(C)(O)C2)c(C#N)c1` [Example 188, N-(5′-cyano-6′-(3-hydroxy-3-methylazetidin-1-yl)-2-methyl-[3,3′-bipyridin]-5-yl)-2-cyclopropyl-isonicotinamide] are 1.76 nM and 9.92 nM.
Consider `Cc1ccc(NC(=O)c2cc(C(C)(F)F)ccn2)cc1-c1cnc(N2CCOCC2)c(C#N)c1` [Example 241, N-(3-(5-cyano-6-morpholinopyridin-3-yl)-4-methylphenyl)-4-(1,1-difluoroethyl) picolinamide], for which the IC50 came to 0.279 nM against C-RAF and 1.5 nM at b-Raf (V600E).
Regarding `CCC(F)(F)c1cc(C(=O)Nc2cnc(C)c(-c3cnc(N4CC(C)(O)C4)c(C#N)c3)c2)ccn1` [Example 192, N-(5′-cyano-6′-(3-hydroxy-3-methylazetidin-1-yl)-2-methyl-[3,3′-bipyridin]-5-yl)-2-(1,1-difluoropropyl) isonicotinamide], the results for the IC50 on C-RAF and against b-Raf (V600E) were 1.15 nM and 5.13 nM, respectively.
Turning to `Cc1ccc(NC(=O)c2cn(C(C)C)nc2C)cc1-c1cnc(N(C)C)c(C#N)c1` [Example 253, N-(3-(5-cyano-6-(dimethylamino)pyridin-3-yl)-4-methylphenyl)-1-isopropyl-3-methyl-1H-pyrazole-4-carboxamide], the IC50 on C-RAF came to 2.5 nM; on b-Raf (V600E), 16.5 nM.
As to `Cc1ncc(NC(=O)c2cccc(S(C)(=O)=O)c2)cc1-c1cnc(N2CC(C)(O)C2)c(C#N)c1` [Example 187, N-(5′-cyano-6′-(3-hydroxy-3-methylazetidin-1-yl)-2-methyl-[3,3′-bipyridin]-5-yl)-3-(methylsulfonyl) benzamide], the values for the IC50 against C-RAF and at b-Raf (V600E) were 4.2 nM and 26.6 nM, respectively.
As for `COCCOc1ncc(-c2cc(NC(=O)c3ccnc(C(F)(F)F)c3)cnc2C)cc1C#N` [Example 93, N-(5′-cyano-6′-(2-methoxyethoxy)-2-methyl-[3,3′-bipyridin]-5-yl)-2-(trifluoromethyl) isonicotinamide], the IC50 against C-RAF is 1.75 nM; against b-Raf (V600E), 6.84 nM.
`Cc1ncc(NC(=O)c2cc(C(C)(C)C#N)ccn2)cc1-c1cnc(N2CC(C)(O)C2)c(C#N)c1` [Example 231, N-(5′-cyano-6′-(3-hydroxy-3-methylazetidin-1-yl)-2-methyl-[3,3′-bipyridin]-5-yl)-4-(2-cyanopropan-2-yl)picolinamide]: the IC50 at C-RAF stood at 1.96 nM; against b-Raf (V600E) it was 15.8 nM.
The corresponding values for `Cc1ccc(NC(=O)c2ccnc(C(F)(F)F)c2)cc1-c1cnc(N2CC(C)(O)C2)c(C#N)c1` [Example 212, N-(3-(5-cyano-6-(3-hydroxy-3-methylazetidin-1-yl)pyridin-3-yl)-4-methylphenyl)-2-(trifluoromethyl) isonicotinamide] are 0.32 nM and 1.15 nM.
As to `Cc1ccc(NC(=O)c2cccc(C(F)(F)F)c2)cc1-c1cnc(NC2CC2)c(C#N)c1` [Example 17, N-(3-(5-cyano-6-(cyclopropylamino)pyridin-3-yl)-4-methylphenyl)-3-(trifluoromethyl) benzamide], the results for the IC50 against C-RAF and against b-Raf (V600E) were 0.323 nM and 2.28 nM, respectively.
The corresponding values for `Cc1ccc(NC(=O)c2cc(C3CC3)on2)cc1-c1cnc(N(C)C)c(C#N)c1` [Example 259, N-(3-(5-cyano-6-(dimethylamino)pyridin-3-yl)-4-methylphenyl)-5-cyclopropylisoxazole-3-carboxamide] are 0.435 nM and 3.79 nM.
As to `Cc1ccc(NC(=O)c2cnnc(C(C)(C)F)c2)cc1-c1cnc(N2CC(C)(O)C2)c(C#N)c1` [Example 194, N-(3-(5-cyano-6-(3-hydroxy-3-methylazetidin-1-yl)pyridin-3-yl)-4-methylphenyl)-6-(2-fluoropropan-2-yl)pyridazine-4-carboxamide], the values for the IC50 at C-RAF and against b-Raf (V600E) were 0.285 nM and 1.53 nM, respectively.
Take `COCCNc1ncc(-c2cc(NC(=O)c3cnnc(C(C)(C)C#N)c3)ccc2C)cc1C#N` [Example 201, N-(3-(5-cyano-6-((2-methoxyethyl)amino)pyridin-3-yl)-4-methylphenyl)-6-(2-cyanopropan-2-yl)pyridazine-4-carboxamide]: the half-maximal inhibitory concentration (IC50) on C-RAF turned out to be 0.447 nM; at b-Raf (V600E), 3.04 nM.
With `Cc1ncc(NC(=O)c2ccnc(C(F)(F)F)c2)cc1-c1cnc(OC2COC2)c(C#N)c1` [Example 95, N-(5′-cyano-2-methyl-6′-(oxetan-3-yloxy)-[3,3′-bipyridin]-5-yl)-2-(trifluoromethyl) isonicotinamide], the figures for the IC50 against C-RAF and against b-Raf (V600E) were 2.34 nM and 12.8 nM, respectively.

In general, IC50 refers to the midpoint of a concentration-inhibition curve. Lower therefore signals higher potency.
